In patent publication US8461145B2 (priority 2007, dated 2013):

biological target: Human TRPA1 (Homo sapiens, UniProt O75762); assay: cell-based; settings: not given
Sequence (O75762 whole entry, looked up): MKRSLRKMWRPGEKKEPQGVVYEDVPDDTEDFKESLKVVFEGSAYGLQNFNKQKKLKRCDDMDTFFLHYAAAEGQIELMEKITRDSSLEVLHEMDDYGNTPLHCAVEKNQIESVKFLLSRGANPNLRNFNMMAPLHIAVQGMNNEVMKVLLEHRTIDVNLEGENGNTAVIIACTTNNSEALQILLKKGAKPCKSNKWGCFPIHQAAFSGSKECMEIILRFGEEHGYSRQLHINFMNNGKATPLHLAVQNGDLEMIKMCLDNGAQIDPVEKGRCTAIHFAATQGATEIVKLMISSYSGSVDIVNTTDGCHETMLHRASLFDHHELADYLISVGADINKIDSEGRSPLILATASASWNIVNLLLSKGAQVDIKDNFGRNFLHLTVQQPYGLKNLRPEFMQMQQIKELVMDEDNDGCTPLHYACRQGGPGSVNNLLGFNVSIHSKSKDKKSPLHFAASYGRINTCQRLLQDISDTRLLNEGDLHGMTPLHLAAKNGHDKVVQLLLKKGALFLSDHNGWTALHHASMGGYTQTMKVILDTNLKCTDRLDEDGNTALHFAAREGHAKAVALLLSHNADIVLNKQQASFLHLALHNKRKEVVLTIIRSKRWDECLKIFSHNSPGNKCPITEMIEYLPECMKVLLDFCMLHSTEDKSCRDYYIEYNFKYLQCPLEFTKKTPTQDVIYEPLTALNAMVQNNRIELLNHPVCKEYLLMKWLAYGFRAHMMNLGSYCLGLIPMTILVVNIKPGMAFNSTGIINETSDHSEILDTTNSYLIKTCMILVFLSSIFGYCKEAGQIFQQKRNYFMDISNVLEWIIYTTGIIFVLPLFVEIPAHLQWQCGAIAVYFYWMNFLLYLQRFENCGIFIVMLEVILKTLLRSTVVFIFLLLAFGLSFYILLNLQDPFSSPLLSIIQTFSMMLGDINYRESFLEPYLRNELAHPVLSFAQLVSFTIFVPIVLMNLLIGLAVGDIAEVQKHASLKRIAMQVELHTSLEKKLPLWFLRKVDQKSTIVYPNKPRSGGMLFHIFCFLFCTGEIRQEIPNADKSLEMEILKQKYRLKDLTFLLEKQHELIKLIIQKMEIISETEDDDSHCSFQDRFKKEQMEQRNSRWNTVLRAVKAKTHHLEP

Row | Structure (SMILES) | pEC50 values for TRPA1 agonism
1 | CCCCOC(=O)c1cccc2c1Cc1ccccc1N=C2 [Compound 13] | 8.07
2 | COC(=O)c1ccc2c(c1)Oc1ccccc1N=C2 [Compound 10] | 7.28
3 | COC(=O)c1ccc2c(c1)Cc1ccccc1C=N2 [Compound 3] | 9.24
4 | COC(=O)c1cccc2c1Oc1ccccc1C=N2 [Compound 23] | 9.93
5 | COC(=O)c1cccc2c1Oc1ccccc1N=C2 [Compound 12] | 10.22
6 | COC(=O)c1cccc2c1Cc1ccccc1C=N2 [Compound 17] | 9.24
7 | NC(=O)c1cccc2c1Oc1ccccc1N=C2 [Compound 21] | 10.12

same assay, conditions: pEC50 values for TRPA1 agonism

Row | Structure (SMILES) | EC50
8 | COC(=O)c1cccc2c1C=Nc1ccccc1C2 [Compound 19] | 28.8 nM
9 | COC(=O)c1cccc2c1N=Cc1ccccc1C2 [Compound 26] | 38 nM
10 | COCCCNC(=O)c1cccc2c1Cc1ccccc1N=C2 [Compound 6] | 8.71 nM
11 | CN1CCN(C(=O)c2ccc3c(c2)Cc2ccccc2C=N3)CC1 [Compound 8] | 3.16 nM
12 | O=C(O)c1cccc2c1Cc1ccccc1N=C2 [Compound 4] | 363 nM
13 | COC(=O)c1cccc2c1N=Cc1ccccc1C2 [Compound 18] | 27.5 nM
14 | CCCCOC(=O)c1cccc2c1Cc1ccccc1N=C2 [Compound 14] | 5.62 nM
15 | COC(=O)c1ccc2c(c1)N=Cc1ccccc1C2 [Compound 20] | 28.2 nM
16 | COC(=O)c1cccc2c1Oc1ccccc1C=N2 [Compound 24] | 0.0741 nM
17 | COC(=O)c1ccc2c(c1)C=Nc1ccccc1C2 [Compound 1] | 93.3 nM
18 | COC(=O)c1cccc2c1Oc1ccccc1N=C2 [Compound 11] | 0.0813 nM
19 | CCN(CC)C(=O)c1cccc2c1Cc1ccccc1N=C2 [Compound 5] | 44.7 nM
20 | COC(=O)c1cccc2c1Cc1ccccc1C=N2 [Compound 25] | 0.447 nM
21 | COCCCNC(=O)c1cccc2c1Cc1ccccc1N=C2 [Compound 7] | 5.89 nM
22 | CN1CCN(C(=O)c2ccc3c(c2)Cc2ccccc2N=C3)CC1 [Compound 15] | 1620 nM
